Measurements from article PMC6268262, “Improved Antileishmanial Activity of Dppz through Complexation with Antimony(III) and Bismuth(III): Investigation of the Role of the Metal” (Molecules, 2012).
Read-outs that look alike come from different tables or passages of the source.

Key:
[1] = tested on: L. amazonensis (SbR) promastigotes, BA199Sb2700.2; test: Antileishmanial activity assay, promastigote growth, Sb-resistant mutant; type: cell-based, Leishmania amazonensis; settings: 72 h, read-out: IC50 (μM) ± SEM
Description: (§1) Leishmania (Leishmania) amazonensis (strain MHOM/BR/1989/BA199) and Leishmania (Leishmania)infantum chagasi (strain MCAN/BR/2002/BH400) promastigotes were maintained in minimum essential culture medium (α-MEM) (Gibco, Invitrogen, Grand Island, NY, USA) supplemented with 10% (v/v) heat inactivated fetal calf serum (Cultilab, Campinas, SP, Brazil), […] kanamycin, […] ampicillin, 2 mM L-glutamine, 5 mg/mL hemin, 5 mM biopterin, (Sigma-Aldrich), pH 7.0 and incubated at 25 °C. L. amazonensis and L. infantum chagasi were selected for Sb(III) resistance as previously decribed. The Sb(III)-resistant mutants L. amazonensis BA199Sb2700.2 and L. infantum chagasi BH400Sb2700.2 were selected in 25 cm^2 flasks containing 5 mL of α-MEM in the presence of increasing Sb(III) concentrations up to 2,700 μM.
(§2) Complexes 1 and 2 were evaluated in vitro for their activity against both Sb(III)-sensitive and -resistant Leishmania parasites. Log-phase L. amazonensis and L. infantum chagasi promastigotes (1 × 10^6 parasites/mL) were seeded in 24-wells cell culture plates with 1.5 mL of α-MEM, incubated under shaking at 25 °C during 72 h in the presence of several concentrations of complex 1 or 2. Controls were performed using cultures in the presence of potassium antimonyl tartrate, SbCl3, BiCl3 and dppz itself. Non-treated parasites were established for growth comparison. Stock solutions of dppz, its complexes, SbCl3 and BiCl3 were dissolved in DMSO (5 M) and diluted in α-MEM cell culture medium to obtain the range of tested concentrations. […] For drug susceptibility assay, Leishmania growth curves were constructed by measuring absorbance at 600 nm. […] All experiments were done at least three times as independent experiments performed in triplicate.
(§3) The IC50 and CC50 values were calculated by nonlinear regression using the software GraphPad Prism 5.0. The acceptable level of significance was 95% (p < 0.05).

[2] = tested on: L. infantum chagasi (WT) promastigotes, strain BH400; test: Antileishmanial activity assay, promastigote growth (absorbance 600 nm), wild-type strain; type: cell-based, Leishmania infantum chagasi; settings: 72 h, 25 °C
Description: as §1, §2, §3

[3] = tested on: L. amazonensis (WT) promastigotes, strain BA199; test: Antileishmanial activity assay, promastigote growth, wild-type strain; type: cell-based, Leishmania amazonensis; settings: 72 h, 25 °C
Description: as §1, §2, §3

[4] = tested on: L. infantum chagasi (SbR) promastigotes, BH400Sb2700.2; test: Antileishmanial activity assay, promastigote growth, Sb-resistant mutant; type: cell-based, Leishmania infantum chagasi; settings: 72 h, read-out: IC50 (μM) ± SEM
Description: as §1, §2, §3

[5] = Cytotoxicity assay against peritoneal macrophages (MTT); type: cell-based, mouse; settings: mouse peritoneal macrophages, MTT, 24 h
Description: (§4) Macrophages were obtained by lavage of peritoneal cavity of mice with 10 mL cold RPMI without FBS. After washing, the cell suspension (4.0 × 10^6/mL) was seeded (0.1 mL) in 96-well flat bottom plates. Macrophages were allowed to adhere for 2 h and non-adherent cells were removed by washing with RPMI. Then, the studied compounds were added to the wells at concentrations ranging from 1 to 20 μM and the cells were further cultured in RPMI-1640 supplemented with 10% FBS for 24 h at 37 °C in a humidified 5% CO2 atmosphere. Thereafter, the medium was replaced with fresh RPMI containing 0.5 mg/mL of MTT and the plates were incubated for additional 4 h. Supernatants were aspirated and the formazan crystals formed were dissolved in 100 μL of DMSO. After 15 min of incubation at room temperature, absorbance of solubilized MTT formazan product was spectrophotometrically measured at 570 nm.
as §3

[6] = tested on: mouse peritoneal macrophages; test: as above; type: cell-based
Description: as §4, §3

Leishmania promastigotes = test: microbe, parasite or virus in culture; type: cell-based, Leishmania infantum chagasi and Leishmania amazonensis; settings: for concentration in whose presence Sb-resistant lines failed to grow: L. infantum chagasi BH400 Sb2700.2 and L. amazonensis BA199 Sb2700.2
Description: as §1, §2

[7] = Stability of the complexes by UV absorption spectroscopy; type: physicochemical; settings: 10 µmol·L^−1 in DMSO, DMSO-containing water and octanol, 0 to 4 h
Description: The stability of the complexes was checked by UV absorption spectroscopy. For this purpose, UV absorption spectra were registered at different time intervals (from 0 to 4 h) for dppz and complexes 1 and 2 at 10 µmol·L^−1 in DMSO, DMSO-containing water and octanol.

[8] = n-Octanol/water partition coefficient, Shake-Flask method; type: physicochemical; settings: phosphate buffer pH 6.8
Description: Then, three different partition system were prepared by adding these solutions to water-saturated octanol, in octanol/water volume ratios, 1:1, 1:2 and 2:1 in duplicate. The mixtures were vortexed for 10 min and then centrifuged for 5 min. The partition coefficients were determined using the absorbance of complexes 1 and 2. Calculated dppz log P value was obtained from the program ALOGPS 2.143 available on line.

[9] = L. amazonensis (SbR) promastigotes, 25 °C
[10] = L. infantum chagasi (SbR) promastigotes, 25 °C
[11] = listed as dppzBiCl3, read-out: IC50 (μM) ± SEM
[12] = listed as dppzSbCl3, read-out: IC50 (μM) ± SEM

## [Cl][Bi]([Cl])[Cl] [BiCl3, Bi(III) chloride]
[1]; [9]
  IC50: > 500 µM
[2]; read-out: IC50 (μM) ± SEM
  IC50: 563 ± 2 µM
[3]; read-out: IC50 (μM) ± SEM
  IC50: 621 ± 2 µM
[4]; [10]
  IC50: > 500 µM

## c1ccc2nc3c4cccnc4c4ncccc4c3nc2c1 [Dppz, dipyrido[3,2-a:2',3'-c]phenazine]
[1]; Leishmania amazonensis
  IC50: 2 ± 0.05 µM
[5]
  CC50 at 24 h: 12.5 µM
[6]; ratio between CC50 in murine macrophages and IC50 in L. infantum chagasi (WT)
  SI: selective index: 15.4
[2]; Leishmania infantum, read-out: IC50 (μM) ± SEM
  IC50: 0.81 ± 0.04 µM
[3]; Leishmania amazonensis, read-out: IC50 (μM) ± SEM
  IC50: > 2 µM
[4]; Leishmania infantum
  IC50: 1.86 ± 0.08 µM
Leishmania promastigotes; Leishmania, read-out: IC50 range over strains
  IC50: 0.8 to 2 µM

## [Cl][Sb]([Cl])[Cl] [SbCl3, antimony trichloride]
[1]; [9]
  IC50: 1503 ± 2 µM
[2]; read-out: IC50 (μM) ± SEM
  IC50: 341 ± 2 µM
[3]; read-out: IC50 (μM) ± SEM
  IC50: 362 ± 2 µM
[4]; [10]
  IC50: 462 ± 3 µM

## O=C([O-])[C@H]([O-])[C@@H]([O-])C(=O)[O-].O=C([O-])[C@H]([O-])[C@@H]([O-])C(=O)[O-].[K+].[K+].[Sb+3].[Sb+3] [TA, potassium antimonyl tartrate]
[1]; [9]
  IC50: > 2700 µM
[2]; read-out: IC50 (μM) ± SEM
  IC50: 100 ± 3 µM
[3]; read-out: IC50 (μM) ± SEM
  IC50: 83 ± 1 µM
[4]; [10]
  IC50: > 2700 µM

## [Bi(dppz)Cl3] [complex 2]
[7]
  UV absorption spectra as a function of time (stability): did not show significant changes as a function of time
[1]; [9]
  IC50: 1.12 ± 0.01 µM
[2]; [11]
  IC50: 0.59 ± 0.01 µM
[2]; read-out: IC50 (μM) ± SEM
  IC50: ~0.6 µM
[8]
  log P (octanol/water partition coefficient): 0.98 ± 0.17
[3]; [11]
  IC50: 1.07 ± 0.03 µM
[3]; read-out: IC50 (μM) ± SEM
  IC50: ~1 µM
[4]; [10]
  IC50: 0.61 ± 0.02 µM
Leishmania promastigotes
  concentration in whose presence Sb-resistant lines failed to grow: ≤ 1.12 µM

## [Sb(dppz)Cl3] [complex 1]
[7]
  UV absorption spectra as a function of time (stability): did not show significant changes as a function of time
[1]; [9]
  IC50: 0.92 ± 0.02 µM
[6]; read-out: CC50: concentration of dppz which is cytotoxic against 50% of macrophages, mouse peritoneal macrophages, MTT, 24 h
  CC50: 7 µM
[2]; [12]
  IC50: 0.62 ± 0.01 µM
[2]; read-out: IC50 (μM) ± SEM
  IC50: ~0.6 µM
[8]
  log P (octanol/water partition coefficient): 0.94 ± 0.24
[3]; [12]
  IC50: 0.95 ± 0.02 µM
[3]; read-out: IC50 (μM) ± SEM
  IC50: ~1 µM
[4]; [10]
  IC50: 0.57 ± 0.01 µM
Leishmania promastigotes
  concentration in whose presence Sb-resistant lines failed to grow: ≤ 1.12 µM
